For 6 molecules, TGI results are on record in PubChem BioAssay (NCI).

Structures are written as SMILES.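 In this assay, cells in 96-well plates receive the compound at five concentrations for 48 hours. Endpoints are linearly interpolated between the surrounding concentrations. The concentration for full growth arrest is given as TGI.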

The first experiment concerns KM12 colon. The experiment can be described thus: inhibition of tumour cell growth, NCI panel, 48 h.
Molecule `O=C(/N=C/c1c(O)c2ccccc2oc1=O)Oc1ccccc1` displayed a TGI of over 100 µM.
Still for that read-out and setting: the result for `O=c1cc(CO)oc(C(O)c2ccccc2)c1O` (stereo not drawn) reads over 100 µM.

The subject of another experiment is SF-268 CNS. The experiment can be described thus: inhibition of tumour cell growth, NCI panel, 48 h.
In turn, `O=C1c2cccc3cccc(c23)C(=O)N1CCCNCCCNCCCCNCCCNCCCN1C(=O)c2cccc3cccc(c23)C1=O` had a TGI of 12.9 µM.
On to `Nc1nc(Cl)c(N)c(NCC2(CO)CCCC2)n1`, for which the TGI is over 100 µM.
For the molecule `CN(C)c1ccc(/C=N\NC(=O)Nc2cccc3ccccc23)cc1`, the TGI is 71.8 µM.
Consider `CC(=O)N(CCc1ccccc1)C(C#N)c1ccccc1` (stereo not drawn), for which the TGI is over 100 µM.
Still for that read-out and setting: for `O=c1cc(CO)oc(C(O)c2ccccc2)c1O` (stereo not drawn) the value was over 100 µM.

A further experiment relates to NCI-H226 lung. Description: inhibition of tumour cell growth, NCI panel, 48 h.
In turn, `O=C1c2cccc3cccc(c23)C(=O)N1CCCNCCCNCCCCNCCCNCCCN1C(=O)c2cccc3cccc(c23)C1=O` yielded a TGI of 28.6 µM.
The same measure, in the same setting: for `Nc1nc(Cl)c(N)c(NCC2(CO)CCCC2)n1` the value was over 100 µM; for `CN(C)c1ccc(/C=N\NC(=O)Nc2cccc3ccccc23)cc1`, 9.06 µM; for `CC(=O)N(CCc1ccccc1)C(C#N)c1ccccc1` (stereo not drawn), over 100 µM.
As to `O=C(/N=C/c1c(O)c2ccccc2oc1=O)Oc1ccccc1`, the TGI amounted to 44.9 µM.
Still for that read-out and setting: for `O=c1cc(CO)oc(C(O)c2ccccc2)c1O` (stereo not drawn) the value was over 100 µM.

Another experiment relates to HCT-116 colon. The experiment can be described thus: inhibition of tumour cell growth, NCI panel, 48 h.
Consider `O=C1c2cccc3cccc(c23)C(=O)N1CCCNCCCNCCCCNCCCNCCCN1C(=O)c2cccc3cccc(c23)C1=O`, for which the TGI turned out to be 8.17 µM.
Same read-out and setting: for `Nc1nc(Cl)c(N)c(NCC2(CO)CCCC2)n1` the value was over 100 µM.
`CN(C)c1ccc(/C=N\NC(=O)Nc2cccc3ccccc23)cc1` displayed a TGI of 65.2 µM.
`CC(=O)N(CCc1ccccc1)C(C#N)c1ccccc1` (stereo not drawn) came in with a TGI of over 100 µM.
On the same count and under the same terms, for `O=C(/N=C/c1c(O)c2ccccc2oc1=O)Oc1ccccc1` the value was 71.8 µM.
Same read-out and setting: the result for `O=c1cc(CO)oc(C(O)c2ccccc2)c1O` (stereo not drawn) reads over 100 µM.

Another experiment concerns CCRF-CEM leukemia. The experiment can be described thus: inhibition of tumour cell growth, NCI panel, 48 h.
Turning to `O=C1c2cccc3cccc(c23)C(=O)N1CCCNCCCNCCCCNCCCNCCCN1C(=O)c2cccc3cccc(c23)C1=O`, the TGI is 3.29 µM.
In turn, `Nc1nc(Cl)c(N)c(NCC2(CO)CCCC2)n1` displayed a TGI of over 100 µM.
The same measure, in the same setting: for `CN(C)c1ccc(/C=N\NC(=O)Nc2cccc3ccccc23)cc1` the value was over 100 µM; for `CC(=O)N(CCc1ccccc1)C(C#N)c1ccccc1` (stereo not drawn), over 100 µM.
For the molecule `O=C(/N=C/c1c(O)c2ccccc2oc1=O)Oc1ccccc1`, the TGI was over 100 µM.

The next experiment concerns MCF7 breast. The experiment can be described thus: inhibition of tumour cell growth, NCI panel, 48 h.
In turn, `O=C1c2cccc3cccc(c23)C(=O)N1CCCNCCCNCCCCNCCCNCCCN1C(=O)c2cccc3cccc(c23)C1=O` gave a TGI of 1.61 µM.
The same measure, in the same setting: for `Nc1nc(Cl)c(N)c(NCC2(CO)CCCC2)n1` the value was over 100 µM; for `CN(C)c1ccc(/C=N\NC(=O)Nc2cccc3ccccc23)cc1`, 33 µM.
The same measure, in the same setting: for `CC(=O)N(CCc1ccccc1)C(C#N)c1ccccc1` (stereo not drawn) the value was over 100 µM; for `O=C(/N=C/c1c(O)c2ccccc2oc1=O)Oc1ccccc1`, over 100 µM.
`O=c1cc(CO)oc(C(O)c2ccccc2)c1O` (stereo not drawn) registered a TGI of over 100 µM.

For a further experiment, the system named is SF-539 CNS. The experiment can be described thus: inhibition of tumour cell growth, NCI panel, 48 h.
Turning to `O=C1c2cccc3cccc(c23)C(=O)N1CCCNCCCNCCCCNCCCNCCCN1C(=O)c2cccc3cccc(c23)C1=O`, the TGI is 23.7 µM.
On the same count and under the same terms, the result for `Nc1nc(Cl)c(N)c(NCC2(CO)CCCC2)n1` reads over 100 µM; that for `CN(C)c1ccc(/C=N\NC(=O)Nc2cccc3ccccc23)cc1`, 21.5 µM.
Still for that read-out and setting: the result for `CC(=O)N(CCc1ccccc1)C(C#N)c1ccccc1` (stereo not drawn) reads over 100 µM; that for `O=C(/N=C/c1c(O)c2ccccc2oc1=O)Oc1ccccc1`, 42.2 µM.
Same read-out and setting: the result for `O=c1cc(CO)oc(C(O)c2ccccc2)c1O` (stereo not drawn) reads over 100 µM.

For the next experiment, the system named is UACC-62 melanoma. The experiment can be described thus: inhibition of tumour cell growth, NCI panel, 48 h.
The molecule `O=C1c2cccc3cccc(c23)C(=O)N1CCCNCCCNCCCCNCCCNCCCN1C(=O)c2cccc3cccc(c23)C1=O` returned a TGI of 12.3 µM.
The same measure, in the same setting: the result for `Nc1nc(Cl)c(N)c(NCC2(CO)CCCC2)n1` reads 7.44 µM; that for `CC(=O)N(CCc1ccccc1)C(C#N)c1ccccc1` (stereo not drawn), over 100 µM; that for `O=C(/N=C/c1c(O)c2ccccc2oc1=O)Oc1ccccc1`, 79.7 µM.
In the case of `O=c1cc(CO)oc(C(O)c2ccccc2)c1O` (stereo not drawn), the TGI was over 100 µM.

The test system of the next experiment is NCI/ADR-RES ovarian. The experiment can be described thus: inhibition of tumour cell growth, NCI panel, 48 h.
`O=C1c2cccc3cccc(c23)C(=O)N1CCCNCCCNCCCCNCCCNCCCN1C(=O)c2cccc3cccc(c23)C1=O` had a TGI of 46.8 µM.
The same measure, in the same setting: the result for `Nc1nc(Cl)c(N)c(NCC2(CO)CCCC2)n1` reads over 100 µM; that for `CN(C)c1ccc(/C=N\NC(=O)Nc2cccc3ccccc23)cc1`, 78.8 µM; that for `CC(=O)N(CCc1ccccc1)C(C#N)c1ccccc1` (stereo not drawn), over 100 µM.
Still for that read-out and setting: for `O=C(/N=C/c1c(O)c2ccccc2oc1=O)Oc1ccccc1` the value was 95.8 µM.
Still for that read-out and setting: the result for `O=c1cc(CO)oc(C(O)c2ccccc2)c1O` (stereo not drawn) reads over 100 µM.

The subject of another experiment is NCI-H460 lung. The experiment can be described thus: inhibition of tumour cell growth, NCI panel, 48 h.
On to `O=C1c2cccc3cccc(c23)C(=O)N1CCCNCCCNCCCCNCCCNCCCN1C(=O)c2cccc3cccc(c23)C1=O`, for which the TGI was 14.1 µM.
Regarding `Nc1nc(Cl)c(N)c(NCC2(CO)CCCC2)n1`, the TGI was over 100 µM.
Take `CN(C)c1ccc(/C=N\NC(=O)Nc2cccc3ccccc23)cc1`: the TGI turned out to be 31.8 µM.
Same read-out and setting: the result for `O=C(/N=C/c1c(O)c2ccccc2oc1=O)Oc1ccccc1` reads over 100 µM.
The same measure, in the same setting: the result for `O=c1cc(CO)oc(C(O)c2ccccc2)c1O` (stereo not drawn) reads over 100 µM.

In another experiment the test system is MDA-N. The experiment can be described thus: inhibition of tumour cell growth, NCI panel, 48 h.
As for `O=C1c2cccc3cccc(c23)C(=O)N1CCCNCCCNCCCCNCCCNCCCN1C(=O)c2cccc3cccc(c23)C1=O`, the TGI amounted to 6.83 µM.
On the same count and under the same terms, for `Nc1nc(Cl)c(N)c(NCC2(CO)CCCC2)n1` the value was over 100 µM; for `CN(C)c1ccc(/C=N\NC(=O)Nc2cccc3ccccc23)cc1`, 12 µM.
`CC(=O)N(CCc1ccccc1)C(C#N)c1ccccc1` (stereo not drawn): the TGI is over 100 µM.
On the same count and under the same terms, the result for `O=C(/N=C/c1c(O)c2ccccc2oc1=O)Oc1ccccc1` reads 86.7 µM; that for `O=c1cc(CO)oc(C(O)c2ccccc2)c1O` (stereo not drawn), over 100 µM.
